Results from ChEMBL document CHEMBL3603757, “Discovery of a novel tricyclic 4H-thiazolo[5',4':4,5]pyrano[2,3-c]pyridine-2-amino scaffold and its application in a PI3Kα inhibitor with high PI3K isoform selectivity and potent cellular activity” (Bioorg Med Chem Lett, 2015).
Values after ≈ are worked out from the molar mass of the structure shown.

How the values were obtained:
[1] = target: T1, Phosphatidylinositol 4,5-bisphosphate 3-kinase catalytic subunit alpha isoform (Homo sapiens, UniProt P42336); test: Inhibition of P110alpha (unknown origin) by Kinase-Glo assay
T1 sequence (P42336 whole entry, canonical isoform): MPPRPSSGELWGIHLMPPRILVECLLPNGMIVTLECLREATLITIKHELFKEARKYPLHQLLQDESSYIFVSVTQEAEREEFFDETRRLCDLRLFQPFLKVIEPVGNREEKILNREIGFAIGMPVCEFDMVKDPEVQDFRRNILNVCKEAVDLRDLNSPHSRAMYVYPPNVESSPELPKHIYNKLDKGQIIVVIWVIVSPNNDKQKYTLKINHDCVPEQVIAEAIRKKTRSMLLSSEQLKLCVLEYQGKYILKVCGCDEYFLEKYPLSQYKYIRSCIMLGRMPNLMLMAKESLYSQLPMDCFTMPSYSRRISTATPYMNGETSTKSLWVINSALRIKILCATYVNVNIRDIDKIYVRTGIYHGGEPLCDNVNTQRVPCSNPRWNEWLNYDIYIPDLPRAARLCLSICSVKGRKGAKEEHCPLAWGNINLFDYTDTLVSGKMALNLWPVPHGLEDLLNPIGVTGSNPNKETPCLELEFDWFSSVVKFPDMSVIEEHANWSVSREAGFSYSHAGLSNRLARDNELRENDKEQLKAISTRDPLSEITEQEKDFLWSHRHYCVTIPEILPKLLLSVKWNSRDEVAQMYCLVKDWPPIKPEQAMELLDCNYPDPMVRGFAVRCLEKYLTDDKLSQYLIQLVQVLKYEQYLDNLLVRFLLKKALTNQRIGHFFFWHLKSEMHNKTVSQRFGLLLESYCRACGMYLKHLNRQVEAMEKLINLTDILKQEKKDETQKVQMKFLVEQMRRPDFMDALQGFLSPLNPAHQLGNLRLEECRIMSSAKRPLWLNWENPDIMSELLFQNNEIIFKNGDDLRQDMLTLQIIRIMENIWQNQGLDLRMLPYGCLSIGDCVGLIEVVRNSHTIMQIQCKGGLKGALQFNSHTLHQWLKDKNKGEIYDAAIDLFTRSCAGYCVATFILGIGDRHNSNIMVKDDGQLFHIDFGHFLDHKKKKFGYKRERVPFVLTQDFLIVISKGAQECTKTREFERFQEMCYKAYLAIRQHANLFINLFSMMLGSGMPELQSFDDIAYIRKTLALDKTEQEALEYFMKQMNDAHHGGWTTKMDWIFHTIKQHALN

[2] = target: T2, Phosphatidylinositol 4,5-bisphosphate 3-kinase catalytic subunit beta isoform (Homo sapiens, UniProt P42338); test: Inhibition of P110beta (unknown origin) by Kinase-Glo assay
T2 sequence (P42338 whole entry, canonical isoform): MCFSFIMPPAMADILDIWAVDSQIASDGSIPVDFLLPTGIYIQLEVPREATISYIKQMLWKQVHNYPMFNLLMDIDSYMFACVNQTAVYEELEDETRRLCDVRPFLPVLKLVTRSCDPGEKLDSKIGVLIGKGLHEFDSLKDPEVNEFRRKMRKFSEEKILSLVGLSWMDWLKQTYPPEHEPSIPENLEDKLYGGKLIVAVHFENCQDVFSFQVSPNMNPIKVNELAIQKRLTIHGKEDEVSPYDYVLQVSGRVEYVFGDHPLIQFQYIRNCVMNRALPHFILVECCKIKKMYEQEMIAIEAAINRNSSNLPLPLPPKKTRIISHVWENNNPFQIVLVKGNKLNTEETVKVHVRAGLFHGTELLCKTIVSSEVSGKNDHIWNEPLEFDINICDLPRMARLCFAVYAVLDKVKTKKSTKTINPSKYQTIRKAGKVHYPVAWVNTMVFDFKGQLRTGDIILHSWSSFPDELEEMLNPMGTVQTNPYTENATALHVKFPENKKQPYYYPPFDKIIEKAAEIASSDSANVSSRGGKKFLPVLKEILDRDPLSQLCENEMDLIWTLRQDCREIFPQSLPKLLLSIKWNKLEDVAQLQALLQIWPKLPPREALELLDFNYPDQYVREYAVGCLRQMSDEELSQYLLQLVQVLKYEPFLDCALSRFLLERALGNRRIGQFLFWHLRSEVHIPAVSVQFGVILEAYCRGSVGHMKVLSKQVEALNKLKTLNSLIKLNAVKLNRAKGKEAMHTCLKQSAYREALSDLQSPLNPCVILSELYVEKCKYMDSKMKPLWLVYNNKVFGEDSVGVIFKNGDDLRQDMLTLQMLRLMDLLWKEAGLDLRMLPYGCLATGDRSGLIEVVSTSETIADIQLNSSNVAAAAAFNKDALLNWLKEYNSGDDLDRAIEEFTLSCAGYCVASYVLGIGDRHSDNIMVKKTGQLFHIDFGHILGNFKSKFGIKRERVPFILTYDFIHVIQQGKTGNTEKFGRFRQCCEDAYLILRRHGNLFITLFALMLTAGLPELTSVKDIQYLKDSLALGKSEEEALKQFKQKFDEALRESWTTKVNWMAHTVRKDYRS

[3] = target: Phosphatidylinositol 4,5-bisphosphate 3-kinase catalytic subunit gamma isoform (Homo sapiens, UniProt P48736); test: Inhibition of P110gamma (unknown origin) using PI or PIP2:PS as substrate measured for 15 to 60 mins by TR-FRET analysis
Phosphatidylinositol 4,5-bisphosphate 3-kinase catalytic subunit gamma isoform, sequence (P48736 whole entry, canonical isoform): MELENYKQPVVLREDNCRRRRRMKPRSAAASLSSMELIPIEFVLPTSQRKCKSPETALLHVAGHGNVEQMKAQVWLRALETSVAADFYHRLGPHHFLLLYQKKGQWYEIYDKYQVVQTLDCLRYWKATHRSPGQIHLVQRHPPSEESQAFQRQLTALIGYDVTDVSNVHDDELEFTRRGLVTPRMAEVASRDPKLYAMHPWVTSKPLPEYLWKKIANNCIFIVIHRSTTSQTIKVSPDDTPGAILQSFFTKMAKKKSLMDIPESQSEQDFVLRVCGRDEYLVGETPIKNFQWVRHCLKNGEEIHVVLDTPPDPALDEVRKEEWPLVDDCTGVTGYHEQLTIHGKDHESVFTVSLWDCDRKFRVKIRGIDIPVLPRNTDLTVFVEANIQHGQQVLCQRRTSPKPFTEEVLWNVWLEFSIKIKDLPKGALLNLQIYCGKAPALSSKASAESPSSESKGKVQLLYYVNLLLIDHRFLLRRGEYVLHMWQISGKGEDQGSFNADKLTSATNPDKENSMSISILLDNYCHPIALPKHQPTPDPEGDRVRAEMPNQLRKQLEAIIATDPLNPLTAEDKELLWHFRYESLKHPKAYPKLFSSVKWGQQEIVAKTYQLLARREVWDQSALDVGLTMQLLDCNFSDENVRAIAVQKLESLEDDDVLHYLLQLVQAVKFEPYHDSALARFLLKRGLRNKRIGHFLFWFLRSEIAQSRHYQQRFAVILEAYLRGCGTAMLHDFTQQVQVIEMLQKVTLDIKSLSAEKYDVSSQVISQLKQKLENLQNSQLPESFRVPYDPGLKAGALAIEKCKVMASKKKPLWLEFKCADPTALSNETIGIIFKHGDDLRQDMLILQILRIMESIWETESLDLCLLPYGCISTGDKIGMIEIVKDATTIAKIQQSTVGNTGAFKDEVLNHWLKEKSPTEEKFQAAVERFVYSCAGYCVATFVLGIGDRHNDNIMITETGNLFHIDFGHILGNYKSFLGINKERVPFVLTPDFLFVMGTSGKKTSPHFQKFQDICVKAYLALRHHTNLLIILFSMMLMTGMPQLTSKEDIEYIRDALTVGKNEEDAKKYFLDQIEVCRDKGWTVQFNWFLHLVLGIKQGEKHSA

[4] = target: T3, Phosphatidylinositol 4,5-bisphosphate 3-kinase catalytic subunit delta isoform (Homo sapiens, UniProt O00329); test: Inhibition of P110delta (unknown origin) using PI or PIP2:PS as substrate measured for 15 to 60 mins by TR-FRET analysis
T3 sequence (O00329 whole entry): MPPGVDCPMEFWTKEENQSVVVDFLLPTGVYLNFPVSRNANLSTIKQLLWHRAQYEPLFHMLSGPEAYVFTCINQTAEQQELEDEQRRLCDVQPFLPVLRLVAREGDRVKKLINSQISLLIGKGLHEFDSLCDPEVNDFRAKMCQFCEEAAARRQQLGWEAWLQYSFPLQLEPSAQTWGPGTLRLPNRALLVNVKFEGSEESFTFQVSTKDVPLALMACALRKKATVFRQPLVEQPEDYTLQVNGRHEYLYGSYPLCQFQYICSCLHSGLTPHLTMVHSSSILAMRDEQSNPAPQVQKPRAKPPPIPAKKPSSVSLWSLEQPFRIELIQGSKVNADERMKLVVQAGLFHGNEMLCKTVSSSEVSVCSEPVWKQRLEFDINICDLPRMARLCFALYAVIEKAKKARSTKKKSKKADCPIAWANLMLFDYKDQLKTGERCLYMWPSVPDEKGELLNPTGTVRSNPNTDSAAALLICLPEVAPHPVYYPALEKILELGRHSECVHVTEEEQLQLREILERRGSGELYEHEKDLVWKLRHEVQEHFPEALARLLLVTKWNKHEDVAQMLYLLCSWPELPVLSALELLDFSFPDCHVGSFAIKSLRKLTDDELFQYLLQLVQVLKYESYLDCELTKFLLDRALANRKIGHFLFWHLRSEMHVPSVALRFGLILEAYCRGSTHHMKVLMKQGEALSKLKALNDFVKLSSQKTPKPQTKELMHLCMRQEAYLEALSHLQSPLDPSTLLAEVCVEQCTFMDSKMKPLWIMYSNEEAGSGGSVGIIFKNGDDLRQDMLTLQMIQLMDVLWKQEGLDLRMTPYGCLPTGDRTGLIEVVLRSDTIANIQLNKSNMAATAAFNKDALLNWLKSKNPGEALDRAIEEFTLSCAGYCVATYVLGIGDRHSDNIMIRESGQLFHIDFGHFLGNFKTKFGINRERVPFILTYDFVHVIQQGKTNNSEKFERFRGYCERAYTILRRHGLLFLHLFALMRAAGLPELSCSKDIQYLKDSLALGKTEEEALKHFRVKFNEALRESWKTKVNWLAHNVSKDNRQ

[5] = target: T1, Phosphatidylinositol 4,5-bisphosphate 3-kinase catalytic subunit alpha isoform; test: Inhibition of myristoylated human P110alpha expressed in Rat1 cells assessed as inhibition of Akt phosphorylation at Serine 473 by Western blot analysis; type: cell-based
[6] = target: T2, Phosphatidylinositol 4,5-bisphosphate 3-kinase catalytic subunit beta isoform; test: Inhibition of myristoylated human P110beta expressed in Rat1 cells assessed as inhibition of Akt phosphorylation at Serine 473 by Western blot analysis; type: cell-based
[7] = target: T3, Phosphatidylinositol 4,5-bisphosphate 3-kinase catalytic subunit delta isoform; test: Inhibition of myristoylated human P110delta expressed in Rat1 cells assessed as inhibition of Akt phosphorylation at Serine 473 by Western blot analysis; type: cell-based
[8] = Solubility of the compound in water at pH 6.8; type: physicochemical
[9] = Solubility of the compound in water at pH 4; type: physicochemical
[10] = Solubility of the compound in […]; type: physicochemical
[11] = Clearance in Sprague-Dawley rat at 1 mg/kg, iv; type: ADME, organism-based; details: in vivo
[12] = Volume of distribution at steady state in Sprague-Dawley rat at 1 mg/kg, iv; type: ADME, organism-based; details: in vivo, read-out: Vdss
[13] = Terminal half life in Sprague-Dawley rat at 1 mg/kg, iv; type: ADME, organism-based; details: in vivo, read-out: beta t1/2 (converted)
Rattus norvegicus [14] = test: Dose normalized AUC in Sprague-Dawley rat at 1 mg/kg, iv; type: ADME, organism-based; details: in vivo
Rattus norvegicus [15] = test: Dose normalized AUC in Sprague-Dawley rat at 3 mg/kg, po; type: ADME, organism-based; details: in vivo
[16] = Tmax in Sprague-Dawley rat at 3 mg/kg, po; type: ADME, organism-based; details: in vivo
Rattus norvegicus [17] = test: Dose normalized Cmax in Sprague-Dawley rat at 3 mg/kg, po; type: ADME, organism-based; details: in vivo
[18] = Oral bioavailability in Sprague-Dawley rat at 3 mg/kg; type: ADME, organism-based; details: in vivo
[19] = Plasma protein binding in rat; type: ADME, cell-free; details: read-out: PPB (converted)

IC50 [1] [µM]	IC50 [2] [µM]	IC50 [3] [µM]	IC50 [4] [µM]	IC50 [5] [µM]	IC50 [6] [µM]	IC50 [7] [µM]	solubility [8] [µM]	solubility [9] [µM]	solubility [10] [µM]	clearance [11] [mL/min/kg]	Vd [12] [L/kg]	half-life [13] [h]	AUC/dose (Rattus norvegicus [14]) [nM·h]	AUC/dose (Rattus norvegicus [15]) [nM·h]	Tmax [16] [h]	Cmax/dose (Rattus norvegicus [17]) [nM]	bioavailability [18] [%]	fraction unbound [19]	SMILES
0.019	1.04	0.23	0.39	0.019	2	0.616	23 (≈ 10.5 µg/mL)	35 (≈ 15.9 µg/mL)	31 (≈ 14.1 µg/mL)										Cc1nc(NC(=O)N2CC[C@@H](C)[C@H]2C(N)=O)sc1-c1ccnc(C(C)(C)C(F)(F)F)c1
0.005	0.67	0.2	0.22	0.011	1.11	0.54	260 (≈ 122 µg/mL)	450 (≈ 211 µg/mL)	410 (≈ 192 µg/mL)	27	1.8	1.4	1368	228	1.2	61	17	0.033	C[C@@H]1CCN(C(=O)Nc2nc3c(s2)-c2cc(C(C)(C)C(F)(F)F)ncc2OC3)[C@@H]1C(N)=O
